According to the NIST ThermoML archive (doi:10.1016/j.jct.2009.02.002):
Numbers after ± are expanded uncertainties.

Details: 101.33 kPa, Liquid; for viscosity: Capillary tube (Ostwald / Ubbelohde) method; for mass density: Vibrating tube method
[1] = 298.15 K, automatically measured using an Anton Paar DSA 5000 instrument
[2] = 303.15 K, automatically measured using an Anton Paar DSA 5000 instrument
[3] = 308.15 K, automatically measured using an Anton Paar DSA 5000 instrument

viscosity (298.15 K) [mPa·s]	mass density (298.15 K) [kg/m3]	speed of sound [1] [m/s]	viscosity (303.15 K) [mPa·s]	mass density (303.15 K) [kg/m3]	speed of sound [2] [m/s]	viscosity (308.15 K) [mPa·s]	mass density (308.15 K) [kg/m3]	speed of sound [3] [m/s]	speed of sound (298.15 K, Pulse-echo method) [m/s]	speed of sound (303.15 K, Pulse-echo method) [m/s]	speed of sound (308.15 K, Pulse-echo method) [m/s]	SMILES
28.26 ± 0.14	805.122 ± 0.14	1381.9 ± 0.5	22.09 ± 0.11	801.912 ± 0.14	1364.1 ± 0.5	17.77 ± 0.09	798.709 ± 0.14	1346.5 ± 0.5	–	–	–	CC(C)CCCC(C)CCCC(C)CCCCC(C)CCCC(C)CCCC(C)C (configuration not stated) [2,6,10,15,19,23-hexamethyltetracosane]
3.404 ± 0.021	798.52 ± 0.14	1189.6 ± 0.5	2.695 ± 0.017	794.6 ± 0.14	1172.9 ± 0.5	2.188 ± 0.014	790.63 ± 0.15	1156.2 ± 0.5	–	–	–	CC(C)CO [2-methyl-1-propanol]
3.041 ± 0.019	770.456 ± 0.15	–	2.706 ± 0.017	766.981 ± 0.15	–	2.409 ± 0.015	763.52 ± 0.15	–	1338.6 ± 0.8	1320 ± 0.8	1301.7 ± 0.8	CCCCCCCCCCCCCCCC [hexadecane]
